Tested on: 422866-222-R5-J1-PDC complex spheroid viability
Experiment: Anticancer human tumor 422866-222-R5-J1-PDC patient-derived pancreatic adenocarcinoma cell line growth inhibition [POLQ]
Conditions: for IC50: curve of first compound; for viability, T/C: stronger effect = lower value
In short: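 Complex spheroid viability model combining PDC tumour cells with endothelial (HUVEC) and MSC stromal cells. Novobiocin, ART-558 or RP6685 were tested singly and in combination with standard and investigational anticancer drugs. Each was titrated in half-log steps from near clinical Cmax, or from 10 microM where Cmax was unknown.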

[1] = second compound 0.0316 µM, first compound 0.0316 µM
[2] = second compound 0.0316 µM, first compound 0.1 µM
[3] = second compound 0.0316 µM, first compound 0.316 µM
[4] = second compound 0.0316 µM, first compound 1 µM
[5] = second compound 0.0316 µM, first compound 3.16 µM
[6] = second compound 0.0316 µM, first compound 10 µM
[7] = second compound 0.1 µM, first compound 0.0316 µM
[8] = second compound 0.1 µM, first compound 0.1 µM
[9] = second compound 0.1 µM, first compound 0.316 µM
[10] = second compound 0.1 µM, first compound 1 µM
[11] = second compound 0.1 µM, first compound 3.16 µM
[12] = second compound 0.1 µM, first compound 10 µM
[13] = second compound 0.316 µM, first compound 0.0316 µM
[14] = second compound 0.316 µM, first compound 0.1 µM
[15] = second compound 0.316 µM, first compound 0.316 µM
[16] = second compound 0.316 µM, first compound 1 µM
[17] = second compound 0.316 µM, first compound 3.16 µM
[18] = second compound 0.316 µM, first compound 10 µM
[19] = second compound 1 µM, first compound 0.0316 µM
[20] = second compound 1 µM, first compound 0.1 µM
[21] = second compound 1 µM, first compound 0.316 µM
[22] = second compound 1 µM, first compound 1 µM
[23] = second compound 1 µM, first compound 3.16 µM
[24] = second compound 1 µM, first compound 10 µM
[25] = second compound 3.16 µM, first compound 0.0316 µM
[26] = second compound 3.16 µM, first compound 0.1 µM
[27] = second compound 3.16 µM, first compound 0.316 µM
[28] = second compound 3.16 µM, first compound 1 µM
[29] = second compound 3.16 µM, first compound 3.16 µM
[30] = second compound 3.16 µM, first compound 10 µM
[31] = second compound 10 µM, first compound 0.0316 µM
[32] = second compound 10 µM, first compound 0.1 µM
[33] = second compound 10 µM, first compound 0.316 µM
[34] = second compound 10 µM, first compound 1 µM
[35] = second compound 10 µM, first compound 3.16 µM
[36] = second compound 10 µM, first compound 10 µM
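Further: spheroids exposed to compounds for one week before readout.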
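Wherever viability, T/C is given: percent of DMSO vehicle wells luminescence so 100% = untreated viability.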

## O=C(c1cc(Cc2n[nH]c(=O)c3ccccc23)ccc1F)N1CCN(C(=O)C2CC2)CC1 + COC1C(OC(N)=O)C(O)C(Oc2ccc3c(O)c(NC(=O)c4ccc(O)c(CC=C(C)C)c4)c(=O)oc3c2C)OC1(C)C
Second compound 0.0316 µM
  IC50: < 0.0316 µM
Second compound 0.1 µM
  IC50: < 0.0316 µM
Second compound 0.316 µM
  IC50: < 0.0316 µM
Second compound 1 µM
  IC50: < 0.0316 µM
Second compound 3.16 µM
  IC50: < 0.0316 µM
Second compound 10 µM
  IC50: < 0.0316 µM
[1]
  viability, T/C: 40.5%
[2]
  viability, T/C: 40.1%
[3]
  viability, T/C: 42.3%
[4]
  viability, T/C: 38.2%
[5]
  viability, T/C: 34%
[6]
  viability, T/C: 27.5%
[7]
  viability, T/C: 40.1%
[8]
  viability, T/C: 42.5%
[9]
  viability, T/C: 41.2%
[10]
  viability, T/C: 35.4%
[11]
  viability, T/C: 36.4%
[12]
  viability, T/C: 26.3%
[13]
  viability, T/C: 43.5%
[14]
  viability, T/C: 35.9%
[15]
  viability, T/C: 35.7%
[16]
  viability, T/C: 37.9%
[17]
  viability, T/C: 31%
[18]
  viability, T/C: 27.5%
[19]
  viability, T/C: 35.9%
[20]
  viability, T/C: 32%
[21]
  viability, T/C: 37.1%
[22]
  viability, T/C: 37.4%
[23]
  viability, T/C: 27.4%
[24]
  viability, T/C: 24.5%
[25]
  viability, T/C: 39.9%
[26]
  viability, T/C: 34.6%
[27]
  viability, T/C: 38.4%
[28]
  viability, T/C: 36.7%
[29]
  viability, T/C: 33.7%
[30]
  viability, T/C: 28.3%
[31]
  viability, T/C: 38.9%
[32]
  viability, T/C: 30.9%
[33]
  viability, T/C: 35.7%
[34]
  viability, T/C: 32.9%
[35]
  viability, T/C: 29.3%
[36]
  viability, T/C: 27.8%

## CC1COCCN1c1cc(-c2ccnn2C)c2ccnc(-c3ccn[nH]3)c2n1 (stereo unspecified) + COC1C(OC(N)=O)C(O)C(Oc2ccc3c(O)c(NC(=O)c4ccc(O)c(CC=C(C)C)c4)c(=O)oc3c2C)OC1(C)C
Second compound 0.0316 µM
  IC50: > 10 µM
Second compound 0.1 µM
  IC50: > 10 µM
Second compound 0.316 µM
  IC50: > 10 µM
Second compound 1 µM
  IC50: > 10 µM
Second compound 3.16 µM
  IC50: > 10 µM
Second compound 10 µM
  IC50: > 10 µM
[1]
  viability, T/C: 87.7%
[2]
  viability, T/C: 62%
[3]
  viability, T/C: 42.2%
[4]
  viability, T/C: 40%
[5]
  viability, T/C: 85.1%
[6]
  viability, T/C: 67.3%
[7]
  viability, T/C: 90.1%
[8]
  viability, T/C: 52.9%
[9]
  viability, T/C: 39.8%
[10]
  viability, T/C: 46.1%
[11]
  viability, T/C: 87.3%
[12]
  viability, T/C: 79.7%
[13]
  viability, T/C: 96.5%
[14]
  viability, T/C: 51.9%
[15]
  viability, T/C: 35.3%
[16]
  viability, T/C: 39%
[17]
  viability, T/C: 88.5%
[18]
  viability, T/C: 77%
[19]
  viability, T/C: 77.5%
[20]
  viability, T/C: 58.1%
[21]
  viability, T/C: 43.3%
[22]
  viability, T/C: 34.5%
[23]
  viability, T/C: 77.9%
[24]
  viability, T/C: 63.5%
[25]
  viability, T/C: 82.6%
[26]
  viability, T/C: 64.6%
[27]
  viability, T/C: 39.9%
[28]
  viability, T/C: 32%
[29]
  viability, T/C: 88.1%
[30]
  viability, T/C: 78.4%
[31]
  viability, T/C: 82.7%
[32]
  viability, T/C: 55.2%
[33]
  viability, T/C: 46.2%
[34]
  viability, T/C: 33.2%
[35]
  viability, T/C: 81.1%
[36]
  viability, T/C: 71.7%

## CCCS(=O)(=O)Nc1ccc(F)c(C(=O)c2c[nH]c3ncc(-c4ccc(Cl)cc4)cc23)c1F + COC1C(OC(N)=O)C(O)C(Oc2ccc3c(O)c(NC(=O)c4ccc(O)c(CC=C(C)C)c4)c(=O)oc3c2C)OC1(C)C
Second compound 0.0316 µM
  IC50: > 10 µM
Second compound 0.1 µM
  IC50: > 10 µM
Second compound 0.316 µM
  IC50: > 10 µM
Second compound 1 µM
  IC50: > 10 µM
Second compound 3.16 µM
  IC50: > 10 µM
Second compound 10 µM
  IC50: > 10 µM
[1]
  viability, T/C: 96.1%
[2]
  viability, T/C: 129%
[3]
  viability, T/C: 132%
[4]
  viability, T/C: 162%
[5]
  viability, T/C: 236%
[6]
  viability, T/C: 99%
[7]
  viability, T/C: 119%
[8]
  viability, T/C: 118%
[9]
  viability, T/C: 143%
[10]
  viability, T/C: 149%
[11]
  viability, T/C: 198%
[12]
  viability, T/C: 86.6%
[13]
  viability, T/C: 98.2%
[14]
  viability, T/C: 97.8%
[15]
  viability, T/C: 129%
[16]
  viability, T/C: 177%
[17]
  viability, T/C: 173%
[18]
  viability, T/C: 107%
[19]
  viability, T/C: 101%
[20]
  viability, T/C: 114%
[21]
  viability, T/C: 129%
[22]
  viability, T/C: 167%
[23]
  viability, T/C: 217%
[24]
  viability, T/C: 90.6%
[25]
  viability, T/C: 101%
[26]
  viability, T/C: 115%
[27]
  viability, T/C: 129%
[28]
  viability, T/C: 173%
[29]
  viability, T/C: 195%
[30]
  viability, T/C: 111%
[31]
  viability, T/C: 93.9%
[32]
  viability, T/C: 121%
[33]
  viability, T/C: 145%
[34]
  viability, T/C: 161%
[35]
  viability, T/C: 198%
[36]
  viability, T/C: 93.4%

Reference: PubChem BioAssay AID1963844 (Molecular Pharmacology Branch, DTP, NCI, 2024)
